From PubChem BioAssay AID330 (DTP/NCI, 2004) come the findings set out here.

The test deals with P388 leukemia ip, CD2F1 mice, survival T/C. Kind of test: NCI In Vivo Anticancer Drug Screen. Data for tumor model P388 Leukemia (intraperitoneal) in CD2F1 (CDF1) mice. The note with it: endpoint: median survival time, higher = longer survival. The method in brief:
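Mice carrying the transplanted tumor received test compound or vehicle. Survival was recorded in each group, and the value is the treated-group measurement divided by that of the vehicle-treated control group.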

Where [1] appears, read: dose: 12.5 mg/kg/injection, schedule: Q01DX009 (ip), vehicle: Klucel (hydroxypropylcellulose) (HPC).
The mark [2] stands for this setting: dose: 50.0 mg/kg/injection, schedule: Q01DX009 (ip), vehicle: Klucel (hydroxypropylcellulose) (HPC).
The mark [3] stands for this setting: dose: 100.0 mg/kg/injection, schedule: Q01DX009 (ip), vehicle: Klucel (hydroxypropylcellulose) (HPC).
Setting [4] is: dose: 100.0 mg/kg/injection, schedule: Q04DX003 (ip), vehicle: saline with Tween-80.
Setting [5] is: dose: 200.0 mg/kg/injection, schedule: Q04DX003 (ip), vehicle: saline with Tween-80.
[6] abbreviates: dose: 400.0 mg/kg/injection, schedule: Q04DX003 (ip), vehicle: saline with Tween-80.
Where [7] appears, read: dose: 50.0 mg/kg/injection, schedule: Q01DX005 (ip), vehicle: Klucel (hydroxypropylcellulose) (HPC).
[8] abbreviates: dose: 100.0 mg/kg/injection, schedule: Q01DX005 (ip), vehicle: Klucel (hydroxypropylcellulose) (HPC).
The mark [9] stands for this setting: dose: 200.0 mg/kg/injection, schedule: Q01DX005 (ip), vehicle: Klucel (hydroxypropylcellulose) (HPC).
[10] abbreviates: dose: 60.0 mg/kg/injection, schedule: Q01DX005 (ip), vehicle: saline with Tween-80.
Setting [11] is: dose: 120.0 mg/kg/injection, schedule: Q01DX005 (ip), vehicle: saline with Tween-80.

“And” between values parts separate entries of the source, which are not always exact repeats. Equal values may be shown once. Inconclusive results and toxic doses are left out.

Take `O=C1C2(Cl)C3(Cl)C4(Cl)C(Cl)(Cl)C5(Cl)[C@]3(Cl)C1(Cl)[C@]5(Cl)C24Cl` (some centres undefined): the T/C runs as follows: under setting [1], 110 % of control; (dose: 12.5 mg/kg/injection, schedule: Q01DX009 (ip), vehicle: saline with Tween-80) 94 % of control; (dose: 25.0 mg/kg/injection, schedule: Q01DX009 (ip), vehicle: Klucel (hydroxypropylcellulose) (HPC)) 112 % of control; (dose: 25.0 mg/kg/injection, schedule: Q01DX009 (ip), vehicle: saline with Tween-80) 87 % of control.
Regarding `COc1ccc(NC(=O)C#N)cc1`, the T/C was 105 % of control (dose: 7.5 mg/kg/injection, schedule: Q01DX005 (ip), vehicle: saline with Tween-80) and 113 % of control (dose: 15.0 mg/kg/injection, schedule: Q01DX005 (ip), vehicle: saline with Tween-80).
Take `COc1ccc(Cc2c3cc(OC)c(OC)cc3cc(=O)n2C)cc1OC`: the T/C was 106 % of control under setting [2] and 106 % of control under setting [3].
Regarding `C/[N+]([O-])=C/c1ccccc1`, the T/C (dose: 100.0 mg/kg/injection, schedule: Q04DX003 (ip), vehicle: Klucel (hydroxypropylcellulose) (HPC)) was 104 % of control; the T/C (dose: 200.0 mg/kg/injection, schedule: Q04DX003 (ip), vehicle: Klucel (hydroxypropylcellulose) (HPC)) is 106 % of control; the T/C (dose: 400.0 mg/kg/injection, schedule: Q04DX003 (ip), vehicle: Klucel (hydroxypropylcellulose) (HPC)) is 108 % of control.
In the case of `Cc1ccnc2cc(N(C)C)ccc12`, the T/C is 101 % of control (dose: 7.5 mg/kg/injection, schedule: Q01DX005 (ip), vehicle: Klucel (hydroxypropylcellulose) (HPC)); 98 % of control (dose: 15.0 mg/kg/injection, schedule: Q01DX005 (ip), vehicle: Klucel (hydroxypropylcellulose) (HPC)); 99 % of control (dose: 30.0 mg/kg/injection, schedule: Q01DX005 (ip), vehicle: Klucel (hydroxypropylcellulose) (HPC)); 92 % of control (dose: 60.0 mg/kg/injection, schedule: Q01DX005 (ip), vehicle: Klucel (hydroxypropylcellulose) (HPC)).
For `CC1CCC(n2cnc3c(=S)nc[nH]c32)O1` (centres undefined), the T/C was 104 % of control (dose: 66.0 mg/kg/injection, schedule: Q01DX009 (ip), vehicle: saline with Tween-80); 113 % of control (dose: 100.0 mg/kg/injection, schedule: Q01DX009 (ip), vehicle: saline with Tween-80); 109 % of control under setting [4]; 90 % of control (dose: 150.0 mg/kg/injection, schedule: Q01DX009 (ip), vehicle: saline with Tween-80); 100 % of control (dose: 200.0 mg/kg/injection, schedule: Q01DX009 (ip), vehicle: saline with Tween-80); 118 % of control under setting [5]. In addition, the T/C under setting [6] is 118 % of control.
In the case of `O=C(C(Cl)Cl)N1CCN(C(=O)C(Cl)Cl)CC1`, the T/C is 102 % of control under setting [7], 110 % of control under setting [8] and 105 % of control under setting [9].
As to `COc1cc2c(c3c1C(=O)c1c(cc4c(c1O)C(OC1OC(C)C(OC)C(C)(OC)C1OC)CC(C)(O)C4)C3=O)OC1OC2(C)C(O)C(N(C)C)C1O` (centres undefined), the T/C was 153 % of control (dose: 5.0 mg/kg/injection, schedule: Q01DX009 (ip), vehicle: other); 159 % of control (dose: 10.0 mg/kg/injection, schedule: Q01DX009 (ip), vehicle: other); 168 % of control (dose: 20.0 mg/kg/injection, schedule: Q01DX009 (ip), vehicle: other).
With `O=[N+]([O-])c1ccc(/C=N/NC(=S)NC23CC4CC(CC(C4)C2)C3)o1`, the T/C is 92 % of control under setting [7], 103 % of control under setting [8] and 94 % of control under setting [9].
As to `CC(NNC(=S)N1CCCCCC1)c1cccc[n+]1[O-]` (centres undefined), the T/C is, setting by setting: under setting [7], 101 % of control; under setting [8], 101 % of control; under setting [9], 93 % of control.
In the case of `Cc1ccc(S(=O)(=O)CC(=O)CC(=O)C(=O)Nc2ccc(Cl)cc2Cl)cc1`, the T/C is 100 % of control under setting [10]; 100 % of control under setting [11]; 100 % of control (dose: 240.0 mg/kg/injection, schedule: Q01DX005 (ip), vehicle: saline with Tween-80).
As for `NCC(N)CCC(=O)O` (centres undefined), the T/C was 99 % of control (dose: 50.0 mg/kg/injection, schedule: Q01DX005 (ip), vehicle: saline); 105 % of control (dose: 100.0 mg/kg/injection, schedule: Q01DX005 (ip), vehicle: saline); 105 % of control (dose: 200.0 mg/kg/injection, schedule: Q01DX005 (ip), vehicle: saline).
For the compound `CCOC(=O)C(CCCCC(NC(C)=O)(C(=O)OCC)C(=O)OCC)(NC(C)=O)C(=O)OCC`, the T/C under setting [4] is 100 % of control, the T/C under setting [5] was 100 % of control and the T/C under setting [6] is 95 % of control.
On to `C[As](C)SCCC(N)C(=O)NC(CCS[As](C)C)C(=O)O` (centres undefined), for which the T/C under setting [1] is 110 % of control.
Consider `C[S+](C)CCCNC(=O)c1csc(-c2csc(N)n2)n1`, for which the T/C runs as follows: (dose: 6.25 mg/kg/injection, schedule: Q01DX005 (ip), vehicle: water) 100 % of control; (dose: 12.5 mg/kg/injection, schedule: Q01DX005 (ip), vehicle: water) 96 % of control; (dose: 25.0 mg/kg/injection, schedule: Q01DX005 (ip), vehicle: water) 96 % of control.
On to `CN=C(NN(C)C)c1ccc(NC(=O)c2ccc(C(=O)Nc3ccc(C(=NC)NN(C)C)cc3)cc2)cc1`, for which the T/C reads like this: (dose: 3.3 mg/kg/injection, schedule: Q01DX009 (ip), vehicle: saline with Tween-80) 115 % of control; (dose: 4.3 mg/kg/injection, schedule: Q01DX009 (ip), vehicle: saline with Tween-80) 118 % of control; (dose: 13.2 mg/kg/injection, schedule: Q04DX003 (ip), vehicle: saline with Tween-80) 91 % of control.
For `O=C(CCSc1nc(-c2ccccc2)c(-c2ccccc2)o1)N1CCCCC1`, the T/C reads like this: under setting [2], 101 % of control; under setting [3], 101 % of control; (dose: 200.0 mg/kg/injection, schedule: Q01DX009 (ip), vehicle: Klucel (hydroxypropylcellulose) (HPC)) 117 % of control.
Take `Oc1ccccc1/C=N/Nc1nnnn1-c1ccccc1`: the T/C (dose: 100.0 mg/kg/injection, schedule: Q01DX001 (ip), vehicle: Klucel (hydroxypropylcellulose) (HPC)) was 102 % of control; the T/C (dose: 200.0 mg/kg/injection, schedule: Q01DX001 (ip), vehicle: Klucel (hydroxypropylcellulose) (HPC)) was 102 % of control; the T/C (dose: 400.0 mg/kg/injection, schedule: Q01DX001 (ip), vehicle: Klucel (hydroxypropylcellulose) (HPC)) is 98 % of control.
As for `COC(=O)c1csccc1=O`, the T/C by setting is: under setting [7], 112 % of control; under setting [8], 97 % of control; under setting [9], 95 % of control.
Regarding `O=C(/N=C1\N=Nc2nc(C3(c4nc5n(c4O)/C(=N/C(=O)Nc4ccc(Cl)cc4)N=N5)CCCC3=O)c(O)n21)Nc1ccc(Cl)cc1` (centres undefined), the T/C is 91 % of control under setting [10] and 86 % of control under setting [11].
Regarding `[N-]=[N+]=NC(=O)Nc1cccc(C(F)(F)F)c1`, the T/C is 103 % of control (dose: 15.0 mg/kg/injection, schedule: Q01DX005 (ip), vehicle: Klucel + Tween-80); 96 % of control (dose: 30.0 mg/kg/injection, schedule: Q01DX005 (ip), vehicle: Klucel + Tween-80); 100 % of control and 93 % of control (dose: 60.0 mg/kg/injection, schedule: Q01DX005 (ip), vehicle: Klucel + Tween-80).
In the case of `CCOC(=O)C1CC(=O)c2ccccc2C1` (centres undefined), the T/C reads like this: (dose: 6.25 mg/kg/injection, schedule: Q01DX009 (ip), vehicle: distilled water + Tween-80) 101 % of control; (dose: 12.5 mg/kg/injection, schedule: Q01DX009 (ip), vehicle: distilled water + Tween-80) 96 % of control; (dose: 25.0 mg/kg/injection, schedule: Q01DX009 (ip), vehicle: distilled water + Tween-80) 95 % of control; (dose: 50.0 mg/kg/injection, schedule: Q01DX009 (ip), vehicle: distilled water + Tween-80) 102 % of control; (dose: 100.0 mg/kg/injection, schedule: Q01DX009 (ip), vehicle: distilled water + Tween-80) 100 % of control; (dose: 200.0 mg/kg/injection, schedule: Q01DX009 (ip), vehicle: distilled water + Tween-80) 101 % of control. Besides, the T/C (dose: 400.0 mg/kg/injection, schedule: Q01DX009 (ip), vehicle: distilled water + Tween-80) is 109 % of control.
As for `CCCCCCCCCC(O)CCCCCC` (centres undefined), the T/C (dose: 88.0 mg/kg/injection, schedule: Q01DX009 (ip), vehicle: other) was 109 % of control; the T/C (dose: 132.0 mg/kg/injection, schedule: Q01DX009 (ip), vehicle: other) was 109 % of control; the T/C (dose: 200.0 mg/kg/injection, schedule: Q01DX009 (ip), vehicle: other) was 118 % of control.
